In ChEMBL document CHEMBL4266048, “Halogenated Meroditerpenoids from a South Pacific Collection of the Red Alga Callophycus serratus” (J Nat Prod, 2018):
Active and inactive are the calls of the source. The calls are words filed in the database; no cut-off is given here.

Tested on: HL-60
Assay: Cytotoxicity against human HL60 cells after 48 hrs by MTT assay
Type: functional, cell-based
Conditions: for IC50: HL-60, 48 h

C=C1CC[C@@H](Br)C(C)(C)[C@H]1CC[C@@]1(C)[C@H](Cc2cc(Br)ccc2O)/C(=C/I)CC[C@@H]1Br
IC50: 5.1 µM

CC[C@H](/C=C(/C)[C@@H]1C[C@@H](OC)C[C@H](O)C(C)(C)[C@@]2(O)O[C@@H](C[C@@H](OC)[C@H](O)C(=O)O1)C[C@@H](OC)[C@H]2O)CO
IC50: 10 µM

CC1=C2Cc3cc(ccc3O)C(=O)OC(C)(C)[C@H](Br)CC[C@]3(C)O[C@H]3C[C@]2(C)[C@@H](Br)CC1 [BROMOPHYCOLIDE T]
IC50: 6 µM

CC1=C2Cc3cc(ccc3O)C(=O)O[C@H](C(C)(C)Br)CC[C@](C)(O)[C@H](Br)CC[C@]2(C)[C@@H](Br)CC1
IC50: 6.2 µM

C=C1CC=CC(C)(C)[C@H]1CC[C@@]1(C)[C@H](Cc2cc(Br)ccc2O)/C(=C/I)CC[C@@H]1Br
Activity: inactive
